Reference: paper PMC6528170 (Nature, 2009)
Where two headings read alike, the source gives them in different places.

Key:
[1] = biological target: Get3 (S. cerevisiae) (Saccharomyces cerevisiae, UniProt Q12154, D57N); assay: NADH-coupled microplate ATPase assay; type: biochemical; settings: Tris pH 7.5, 5 mM MgCl2, 20 mM NaCl, 30 °C, 2 μM Get3, 0.02% n-dodecyl-β-D-maltopyranoside
[2] = biological target: T1, Get3 (S. cerevisiae) (Saccharomyces cerevisiae, UniProt Q12154); assay: NADH-coupled microplate ATPase assay; type: biochemical; settings: Tris pH 7.5, 5 mM MgCl2, 20 mM NaCl, 30 °C, 2 μM Get3, 0.02% n-dodecyl-β-D-maltopyranoside
T1 sequence (Q12154 1-354): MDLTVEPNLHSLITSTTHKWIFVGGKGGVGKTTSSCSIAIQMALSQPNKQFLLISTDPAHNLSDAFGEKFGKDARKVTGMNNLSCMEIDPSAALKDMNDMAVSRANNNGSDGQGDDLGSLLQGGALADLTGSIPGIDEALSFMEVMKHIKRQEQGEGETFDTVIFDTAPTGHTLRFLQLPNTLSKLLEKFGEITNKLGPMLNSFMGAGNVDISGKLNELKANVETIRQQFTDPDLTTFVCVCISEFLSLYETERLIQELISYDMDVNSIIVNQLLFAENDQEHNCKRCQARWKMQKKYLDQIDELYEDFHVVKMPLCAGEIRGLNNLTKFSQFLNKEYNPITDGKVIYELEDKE

[3] = biological target: the molecule itself; assay: crystal structure
[4] = biological target: the molecule itself; assay: crystal structure; remark: listed apart in the source

Get3 (S. cerevisiae) (Saccharomyces cerevisiae, UniProt Q12154, D57N), sequence (Q12154 whole entry D57N): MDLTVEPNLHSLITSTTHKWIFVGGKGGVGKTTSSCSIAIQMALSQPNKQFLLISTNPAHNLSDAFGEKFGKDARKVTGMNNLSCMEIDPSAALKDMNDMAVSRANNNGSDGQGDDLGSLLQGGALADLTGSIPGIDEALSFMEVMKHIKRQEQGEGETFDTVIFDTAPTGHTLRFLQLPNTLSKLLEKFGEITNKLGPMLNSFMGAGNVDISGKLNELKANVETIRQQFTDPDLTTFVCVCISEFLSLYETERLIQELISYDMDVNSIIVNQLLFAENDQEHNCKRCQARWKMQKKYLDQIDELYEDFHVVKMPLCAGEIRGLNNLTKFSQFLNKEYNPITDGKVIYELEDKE

Molecule: Nc1ncnc2c1ncn2[C@@H]1O[C@H](COP(=O)(O)OP(=O)(O)OP(=O)(O)O)[C@@H](O)[C@H]1O [ATP]
- NADH-coupled microplate ATPase assay [1]: an Asp57Asn mutant is defective for ATP hydrolysis
- apparent Km,ATP [2]: used to calculate Vmax and apparent Km,ATP values

B1: Schizosaccharomyces pombe Get3 (natural protein, S. pombe, UniProt Q9P7F8 1-329, looked up)
chain: MSFDPLPGTLENLLEQTSLKWIFVGGKGGVGKTTTSCSLAIQMSKVRSSVLLISTDPAHNLSDAFGTKFGKDARKVPGFDNLSAMEIDPNLSIQEMTEQADQQNPNNPLSGMMQDLAFTIPGIDEALAFAEILKQIKSMEFDCVIFDTAPTGHTLRFLNFPTVLEKALGKLGGLSSRFGPMINQMGSIMGVNANEQDLFGKMESMRANISEVNKQFKNPDLTTFVCVCISEFLSLYETERMIQELTSYEIDTHNIVVNQLLLDPNTTCPQCMARRKMQQKYLAQIEELYEDFHVVKVPQVPAEVRGTEALKSFSEMLVKPYVYPTSGKE
- stoichiometry N [3]: 2

B2: Saccharomyces cerevisiae Get3 (wild type) (natural protein, S. cerevisiae, UniProt Q12154 1-354, looked up)
chain: MDLTVEPNLHSLITSTTHKWIFVGGKGGVGKTTSSCSIAIQMALSQPNKQFLLISTDPAHNLSDAFGEKFGKDARKVTGMNNLSCMEIDPSAALKDMNDMAVSRANNNGSDGQGDDLGSLLQGGALADLTGSIPGIDEALSFMEVMKHIKRQEQGEGETFDTVIFDTAPTGHTLRFLQLPNTLSKLLEKFGEITNKLGPMLNSFMGAGNVDISGKLNELKANVETIRQQFTDPDLTTFVCVCISEFLSLYETERLIQELISYDMDVNSIIVNQLLFAENDQEHNCKRCQARWKMQKKYLDQIDELYEDFHVVKMPLCAGEIRGLNNLTKFSQFLNKEYNPITDGKVIYELEDKE
- stoichiometry N [4]: 2
